Measured values: patent publication US20150208661A1, “METHOD FOR PREPARING BROMINE BASED BIOCIDAL AQUEOUS COMPOSITIONS” (BROMINE COMPOUNDS LTD., priority 2012, published 2015)

Columns and labels:
[1] = test system: Pseudomonas aeruginosa (ATCC 15442); experiment: Biocidal activity against simulated biofilm system (alginate beads with entrapped bacteria); type: cell-based; settings: pH 8
Text: A biofilm simulation system, alginate beads, developed by the Biofilm Bozeman Institute Montana (Grobe, K. J, Zahller, J and Stewart P. S., 2002 in “Role of dose concentration in biocide efficacy against Pseudomonas aeruginosa Biofilms”, J. Industrial Microbiology & Biotechnology, vol. 29, pp 10-15), was used in order to evaluate the efficacy of the biocide solution against biofilm.
The biofilm simulation was created by entrapping bacteria in alginate gel beads. A plate of R2A agar was streaked with Pseudomonas aeruginosa (ATCC 15442) and incubated at 35° C. overnight. Buffer phosphate at pH 7.2 was used to scrap off the bacteria from the agar plate and to create a suspension. The bacterial suspension was mixed with an equal volume of an aqueous 4% sodium alginate solution, to make a final 2% alginate solution. The alginate and bacterial slurry were placed in a 50 ml syringe attached to a gauge needle, connected to a compressed air tank, allowing the syringe to be pressurized. At 20 psig pressure a stream of small drops was forced out and dropped into a stirred solution of 50 mM CaCl2. The Ca^+2 cross linked the alginate, and semi solid beads with entrapped bacterial cells were formed. The beads were allowed to stir in the CaCl2 solution for about 20 minutes, and then rinsed in a dilute 5 mM CaCl2 solution. Several flasks containing 100 beads each were incubated overnight at 35° C. on a rotating shaker in a buffer solution (at pH 8) with 5 mM addition of CaCl2 to maintain the beads structure. The resulting beads diameter was about 2 mm.
At the beginning of the experiment, the supernatant of the beads buffer suspension containing 5 mM CaCl2 was decanted and replaced by the 100 ml biocide solution with the required concentration (at pH 8). After different interval contact times, 10 beads were removed and placed in a 5 g/l sodium thiosulfate solution containing 50 mM sodium citrate. The sodium citrate was used to dissolve the alginate gel and release the bacteria into the solution. The neutralizer-citrate solution was placed in the refrigerator for 2 hours, than diluted and placed on R2A agar plates using pour plate technique. The plates were incubated at 35° C. for 24-48 hours and counted. The efficacy and toxicity of the neutralizer were checked as well as a control experiment without biocide addition. Four concentrations of active chlorine (0.5, 1, 2.5 and 5 ppm) were tested at four different contact times (5, 15, 30, and 60 min). Table 1-2 describe the surviving colony forming units (CFU) of the bacteria after different biocides treatment at different contact times.

[2] = test system: Inoculum of bacteria (activated sludge taken from domestic waste water treatment plant in Haifa); experiment: Biocidal efficacy under different TOC loading; type: cell-based; settings: 30 min, pH 7
Method: Inoculum of bacteria (activated sludge taken from domestic waste water treatment plant in Haifa), R2A agar for general counting, and Tryptone were employed. The biocidal efficacy of the antifouling composition at different organic loads of 0, 10, 30 and 50 ppm TOC, was examined under different biocidal concentrations (5 and 10 ppm) at pH 7.
1) 1 ml of inoculum with the appropriate biocide concentration (5, 10 ppm) was added to tryptone solutions, 100 ml each, with different concentrations of TOC (0, 10, 30 and 50 ppm). […] The result stands for the bacteria count at zero time. 3) After 30 min. of shaking (100 rpm), 1 ml of each sample was transferred to a tube filled with 9 ml of the neutralization solution […].
An aliquot of 1 ml was taken from this solution and added to another tube containing 9 ml of buffer solution. The solution was mixed under vortex. This operation was repeated for 4 more times.
4) 1 ml from the two lowest dilutions was inoculated on a R2A agar (by the pour plate method). 5) After the plates were incubated at 25° C. for 5-7 days, the bacteria count was recorded.

OCl [NaOCl, sodium hypochlorite]
survival of bacteria (CFU) ([1]; biocide 0.5 ppm as Cl2, contact time 0 min): 1.20E+07 CFU | survival of bacteria (CFU) ([1]; biocide 0.5 ppm as Cl2, contact time 5 min): 6.73E+06 CFU | survival of bacteria (CFU) ([1]; biocide 0.5 ppm as Cl2, contact time 15 min): 6.48E+06 CFU | survival of bacteria (CFU) ([1]; biocide 0.5 ppm as Cl2, contact time 30 min): 6.53E+06 CFU | survival of bacteria (CFU) ([1]; biocide 0.5 ppm as Cl2, contact time 60 min): 4.08E+06 CFU | survival of bacteria (CFU) ([1]; biocide 1 ppm as Cl2, contact time 0 min): 1.20E+07 CFU | survival of bacteria (CFU) ([1]; biocide 1 ppm as Cl2, contact time 5 min): 7.25E+06 CFU | survival of bacteria (CFU) ([1]; biocide 1 ppm as Cl2, contact time 15 min): 4.18E+06 CFU | survival of bacteria (CFU) ([1]; biocide 1 ppm as Cl2, contact time 30 min): 4.28E+06 CFU | survival of bacteria (CFU) ([1]; biocide 1 ppm as Cl2, contact time 60 min): 1.81E+06 CFU | survival of bacteria (CFU) ([1]; biocide 2.5 ppm as Cl2, contact time 0 min): 1.20E+07 CFU | survival of bacteria (CFU) ([1]; biocide 2.5 ppm as Cl2, contact time 5 min): 6.40E+06 CFU | survival of bacteria (CFU) ([1]; biocide 2.5 ppm as Cl2, contact time 15 min): 3.10E+06 CFU | survival of bacteria (CFU) ([1]; biocide 2.5 ppm as Cl2, contact time 30 min): 8.28E+05 CFU | survival of bacteria (CFU) ([1]; biocide 2.5 ppm as Cl2, contact time 60 min): 9.38E+04 CFU | survival of bacteria (CFU) ([1]; biocide 5 ppm as Cl2, contact time 0 min): 1.20E+07 CFU | survival of bacteria (CFU) ([1]; biocide 5 ppm as Cl2, contact time 5 min): 4.55E+06 CFU | survival of bacteria (CFU) ([1]; biocide 5 ppm as Cl2, contact time 15 min): 7.03E+05 CFU | survival of bacteria (CFU) ([1]; biocide 5 ppm as Cl2, contact time 30 min): 2.70E+03 CFU | survival of bacteria (CFU) ([1]; biocide 5 ppm as Cl2, contact time 60 min): 1.00 CFU | % kill ([2]; biocide 5 ppm, TOC 0 ppm): 96.9% | % kill ([2]; biocide 5 ppm, TOC 10 ppm): 86.0% | % kill ([2]; biocide 5 ppm, TOC 30 ppm): 30.6% | % kill ([2]; biocide 5 ppm, TOC 50 ppm): 30.6% | % kill ([2]; biocide 10 ppm, TOC 0 ppm): 99.9% | % kill ([2]; biocide 10 ppm, TOC 10 ppm): 98.8% | % kill ([2]; biocide 10 ppm, TOC 30 ppm): 95.4% | % kill ([2]; biocide 10 ppm, TOC 50 ppm): 88.3%
